This is an account of results in patent publication US20240400620A1, “Compositions Containing Coronavirus Proteins and Epitopes” (priority 2021, published 2024).

The test system of data set [1] is activated (CD44+ CD62L−) CD8+ T cells from B.1.351-infected HLA-B*0702 Ifnar1^−/− mice. Type of data set: cell-based.
The test system of data set [2] is splenocytes or lung leukocytes (IFNγ-producing peptide-specific T cells) from DNA-vaccinated HLA-B*0702 mice. Briefly: IFNγ-ELISpot, cells of DNA-vaccinated HLA-B*0702 Ifnar1^−/− mice stimulated with SARS-CoV-2 peptides. Type of data set: cell-based. The conditions noted are these: 20 h; for IFNγ secretion (ELISpot): lung leukocytes, 10 μg/mL peptide; for IFNγ production (ELISpot) compared with unstimulated control cells: splenocytes, day 21, 10 μg/mL peptide.

For data set [3], the system named is activated CD4+ T cells from OC43-infected HLA-DRB1*0101 Ifnar1^−/− mice. In kind it is cell-based. Particulars: for expansion of peptide-reactive IFNγ+ CD4+ T cells: day 8 post-OC43 infection.
In data set [4] the test system is splenocytes or lung leukocytes from DNA-vaccinated HLA-DRB1*0101 mice. In kind it is cell-based. Particulars: for stimulation of IFNγ production (ELISpot): splenocytes.
The subject of data set [5] is activated CD8+ T cells from OC43-infected HLA-B*0702 Ifnar1^−/− mice. In kind it is cell-based. The conditions noted are these: splenocytes.
Data set [6] deals with SARS-CoV-2 B.1.351. Particulars: mouse, in vivo.
The mark [7] stands for this setting: spleen, day 16 post-OC43 infection.

Like-named read-outs stand apart in the source and are kept apart here. No end group written: not given here.

In the case of APHGVVFL [S1056-1063], the “frequencies of activated IFNγ+, IFNγ+/TNF+, IFNγ+/CD107a+ and IFNγ+/TNF+/IL-2+ CD8+ T cells compared with unstimulated cultures” value in data set [1] is on record as “no significant expansion”. For the same sequence, in data set [2], the “IFNγ secretion (ELISpot)” value is “significant IFNγ secretion” and the “IFNγ production (ELISpot) compared with unstimulated control cells” value was “significantly higher levels of IFNγ”. For “FARTRSMWSF (misc_feature - Membrane; Severe acute respiratory syndrome-related coronavirus) [M103-112]”, the “frequencies of activated IFNγ+, IFNγ+/TNF+, IFNγ+/CD107a+ and IFNγ+/TNF+/IL-2+ CD8+ T cells compared with unstimulated cultures” value in data set [1] is reported as “no significant expansion”.

Turning to “FPRGQGVPIN (misc_feature - Nucleoprotein; Severe acute respiratory syndrome-related coronavirus) [N66-75]”, in data set [2], the “IFNγ secretion (ELISpot)” value is reported as “significant IFNγ secretion” and the “IFNγ production (ELISpot) compared with unstimulated control cells” value is given as “significantly higher levels of IFNγ”. Consider “FPRGQGVPINT (misc_feature - Nucleoprotein; Severe acute respiratory syndrome-related coronavirus) [N66-76]”, for which, in data set [1], the “frequencies of activated IFNγ+, IFNγ+/TNF+, IFNγ+/CD107a+ and IFNγ+/TNF+/IL-2+ CD8+ T cells compared with unstimulated cultures” value is recorded as “no significant expansion”. Moreover, in data set [2], the “IFNγ secretion (ELISpot)” value is given as “significant IFNγ secretion” and the “IFNγ production (ELISpot) compared with unstimulated control cells” value is reported as “significantly higher levels of IFNγ”. On to GSLVVRCSFYEDFLE [ORF896-110], for which, in data set [3] (setting [7]), the “frequencies of cross-reactive IFNγ+ CD4+ T cells” value is given as “significantly increased”. As to “KFPRGQGVPI (misc_feature - Nucleoprotein; Severe acute respiratory syndrome-related coronavirus) [N65-74]”, in data set [2], the “IFNγ secretion (ELISpot)” value is given as “significant IFNγ secretion” and the “IFNγ production (ELISpot) compared with unstimulated control cells” value was “significantly higher levels of IFNγ”. In the case of “LKFPRGQGVPI (misc_feature - Nucleoprotein; Severe acute respiratory syndrome-related coronavirus) [N64-74]”, in data set [2], the “IFNγ secretion (ELISpot)” value is reported as “significant IFNγ secretion” and the “IFNγ production (ELISpot) compared with unstimulated control cells” value is given as “significantly higher levels of IFNγ”. Consider LNTLVKQLSSNFGAI [S959-973], for which the “stimulation of IFNγ production (ELISpot)” value in data set [4] is given as “significant stimulation of IFNγ production”.

Turning to “LPKEITVAT (misc_feature - Membrane; Severe acute respiratory syndrome-related coronavirus) [M164-172]”, the “frequencies of activated IFNγ+, IFNγ+/TNF+, IFNγ+/CD107a+ and IFNγ+/TNF+/IL-2+ CD8+ T cells compared with unstimulated cultures” value in data set [1] was “no significant expansion”. For the sequence “LPKGIMMNV (misc_feature - ORF1ab; Severe acute respiratory syndrome-related coronavirus) [ORF1ab6834-6844]”, the “frequencies of activated IFNγ+ and IFNγ/TNF+ CD8+ T cells” value in data set [5] (day 8 post-OC43 infection) was “increase was significant”. Take LSPRWYFYYL [N104-113]: in data set [6], the “frequencies of N104-113-reactive polyfunctional (IFNγ+/TNF+, IFNγ+/TNF+/IL-2+) and cytotoxic multifunctional (IFNγ+/CD107a+) CD8+ T cells vs mock-immunized” value is on record as “significantly increased”. With “LSPRWYFYYLGTGPEAGL (misc_feature - Nucleocapsid; Severe acute respiratory syndrome-related coronavirus) [N104-121]”, in data set [5] (day 16 post-OC43 infection), the “expansion of peptide-reactive IFNγ+ CD8+ T cells” value stood at 9 fold and the “expansion of peptide-reactive IFNγ+/TNF+ CD8+ T cells” value worked out at 12 fold. For the sequence LYLYALVYFLQSINF [ORF3a106-120], the “IL-2 production by CD4+ T cells” value in data set [3] (day 16 post-OC43 infection) is given as “stimulated IL-2 production”. For “PKEITVATSRTLSYY (misc_feature - Membrane; Severe acute respiratory syndrome-related coronavirus) [M165-179]”, the “stimulation of IFNγ production (ELISpot)” value in data set [4] is on record as “significant stimulation of IFNγ production”. Take QSINFVRIIMRLWLC [ORF3a116-130]: in data set [3] (spleen), the “expansion of peptide-reactive IFNγ+ CD4+ T cells” value is “statistically significant”.

As to RCSFYEDFLEYHDVR [ORF8101-115], the “frequencies of cross-reactive IFNγ+ CD4+ T cells” value in data set [3] is on record as “significantly increased”.

On to “SPRRARSV (misc_feature - Spike; Severe acute respiratory syndrome-related coronavirus) [S680-687]”, for which the “IFNγ production (ELISpot) compared with unstimulated control cells” value in data set [2] is “significantly higher levels of IFNγ”. Take “SPRRARSVA (misc_feature - Spike; Severe acute respiratory syndrome-related coronavirus) [S680-688]”: the “IFNγ production (ELISpot) compared with unstimulated control cells” value in data set [2] is “significantly higher levels of IFNγ”. On the same count and under the same terms, to “SPRWYFYYLG (misc_feature - Nucleoprotein; Severe acute respiratory syndrome-related coronavirus) [N105-114]” belongs “significantly higher levels of IFNγ”. Turning to “TNSPRRARSVA (misc_feature - Spike; Severe acute respiratory syndrome-related coronavirus) [S678-688]”, the “frequencies of activated IFNγ+, IFNγ+/TNF+, IFNγ+/CD107a+ and IFNγ+/TNF+/IL-2+ CD8+ T cells compared with unstimulated cultures” value in data set [1] is “no significant expansion”. In addition, the “IFNγ production (ELISpot) compared with unstimulated control cells” value in data set [2] is on record as “significantly higher levels of IFNγ”.

As to TSNFRVQPTESIVRF [S315-329], the “stimulation of IFNγ response (ELISpot)” value in data set [4] (lung leukocytes) is listed as “significantly stimulated a response”. In data set [4], the “stimulation of IFNγ production (ELISpot)” value is on record as “significant stimulation of IFNγ production”. In addition, in data set [4] (splenocytes and lung leukocytes), the “IFNγ response (ELISpot)” value is “capable of stimulating both splenocytes and lung leukocytes”. “VLAAVYRINWITGGI (misc_feature - Membrane; Severe acute respiratory syndrome-related coronavirus) [M66-80]”: in data set [3] (spleen), the “expansion of peptide-reactive IFNγ+ CD4+ T cells” value is recorded as “statistically significant”. With “VPVAIHADQL (misc_feature - Spike; Severe acute respiratory syndrome-related coronavirus) [S620-629]”, in data set [2], the “IFNγ production (ELISpot) compared with unstimulated control cells” value is on record as “significantly higher levels of IFNγ”. As to “YYRRATRRIRGGDGK (misc_feature - Nucleoprotein; Severe acute respiratory syndrome-related coronavirus) [N86-100]”, the “IL-2 production by CD4+ T cells” value in data set [3] (day 16 post-OC43 infection) was “stimulated IL-2 production”. Also, in data set [3] (setting [7]), the “expansion of polyfunctional cross-reactive IFNγ+/TNF+ CD4+ T cells” value is recorded as “significantly expanded”.
